Article PMC4015874, “Effects of Allium victorialis leaf extracts and its single compounds on aldose reductase, advanced glycation end products and TGF-β1 expression in mesangial cells” (BMC Complementary and Alternative Medicine, 2013)
Entries after “also recorded” stand apart in the source; their conditions may differ.

Legend:
AGEs formation = AGEs formation assay (BSA with fructose and glucose, fluorescence); format: biochemical; details: BSA with 0.2 M fructose and glucose, 37°C, 7 days
Procedure: AGEs formation assay was performed as previously described. Bovine serum albumin (BSA, 10 mg/ml, Sigma-Aldrich) in 50mM phosphate buffer (pH 7.4) with containing 0.02% sodium azide to prevent bacterial growth was added to 0.2 M fructose and glucose. The reaction mixture was then mixed with compounds or aminoguanidine (AG, Sigma-Aldrich). After incubating at 37°C for 7 days, the fluorescent reaction products were assayed on a spectrofluorometric detector (BIO-TEK, Synergy HT, Ex: 350 nm/Em: 450 nm). AGEs assay was performed in quadruplicate.

[1] = molecular target: T1, crude rat lens AR (aldose reductase) (Rattus norvegicus, UniProt P07943); assay: Rat lens AR activity; format: biochemical
T1 construct: the supernatant was used as crude rat lens AR; from tissue; host or cells: lens of 8-week-old Sprague-Dawley rats (supernatant of the homogenate)
Procedure: AR activity was measured as described previously. All animal procedures were approved by the Korea Institute of Oriental Medicine Institutional Animal Care Committee on animal care at our institute and conducted according to institutional guidelines. […] The homogenate was centrifuged at 14,000 rpm for 30 min, and the supernatant was used as crude rat lens AR. […] The reaction was initiated by the addition of NADPH at 37°C and stopped by the addition of 0.15 ml of 0.5 N HCl. Next, 0.5 ml of 6 M NaOH containing 10 mM imidazole was added, and the solution was heated at 60°C for 15 min to convert NADP to a fluorescent product.

[2] = tested on: secreted TGF-β1 in mouse kidney mesangial cells (MMCs); assay: High glucose-induced TGF-β1 secretion in MMCs (ELISA); format: cell-based; details: high glucose 48 h, 10 μM compound, ELISA of medium
Procedure: Mouse kidney mesangial cells (SV40 MES13, MMC) were obtained from the American Type Culture Collection (#CRL-1927, Rockville, MD) and cultured in Dulbecco's modified Eagle's medium:F-12 (3:1) supplemented with 14 mM HEPES, penicillin 100 U/ml, streptomycin 100 μg/ml, and 5% fetal bovine serum. Cells were routinely grown to confluence in a humidified 37°C, 5% CO2 incubator. The levels of TGF-β1 in the medium were determined as described previously. […] This medium was then harvested and TGF-β1 was activated by treatment with 1 N HCl (0.1 ml/0.5 ml of conditioned media) for 10 min at room temperature, then 0.1 ml 1.2 N NaOH/0.5 M HEPES was added. Quantikine mouse TGF-β1 ELISA (R&D systems, Minneapolis, MN) was performed according to the manufacturer’s protocol, and the TGF-β1 levels were normalized to those of total protein.

[3] = tested on: TGF-β1 mRNA expression in mouse kidney mesangial cells (MMCs); assay: High glucose-induced TGF-β1 mRNA expression in MMCs (RT-PCR); format: cell-based; details: high glucose 48 h, 10 μM compound
Procedure: Mouse kidney mesangial cells (SV40 MES13, MMC) were obtained from the American Type Culture Collection (#CRL-1927, Rockville, MD) and cultured in Dulbecco's modified Eagle's medium:F-12 (3:1) supplemented with 14 mM HEPES, penicillin 100 U/ml, streptomycin 100 μg/ml, and 5% fetal bovine serum. Cells were routinely grown to confluence in a humidified 37°C, 5% CO2 incubator.
Total cellular RNA was extracted with TRIzol (Invitrogen, Carlsbad, CA), quantified by measuring the absorbance at 260 nm, and stored at -80°C until analysis. The expression of TGF-β1 and GAPDH mRNAs was detected by RT-PCR analysis. The extracted RNA (1 μg) was subjected to a reverse transcriptase reaction with the Maxime RT premix (Intron, Daejeon, Korea) at 42°C for 60 min and 72°C for 10 min. Subsequently, semi-quantitative PCR was performed with Accupower® PCR premix (Intron, Daejeon, Korea). The primer sequences were as follows: mouse TGF-β1 (sense) 5’- TGAACCAAGGAGACGGAATACAGG -3’, (anti-sense) 5'- GCCATGAGGAGCAGGAAGGG -3’ and mouse GAPDH (sense) 5’- ACGGCAAATTCAACGGCACAG -3’, (anti-sense) 5’- AGACTCCACGACATACTCAGCAC -3’. Aliquots of PCR products were electrophoresed on 1.2% agarose gels and visualized after ethidium bromide staining.

human RAGE (hRAGE) = molecular target: T2, human RAGE (hRAGE) (Homo sapiens, UniProt Q15109); assay: Live cell-based AGE-BSA/RAGE binding in hRAGE-overexpressing cells; details: hRAGE-overexpressing MMCs, Alexa Fluor 488-labeled AGE-BSA, 6 h
T2 construct: expressed in transfected cells; host or cells: mouse kidney mesangial cells (MMCs) overexpressing hRAGE
Procedure: AGE-BSA/RAGE binding in the cells was determined as described previously. Briefly, Alexa 488 labeling of AGE-BSA was performed using the Alexa Fluor® 488 protein labeling kit (Molecular Probes, Eugene, OR). For the binding assay, human RAGE-overexpressing cells (1×10^4) were seeded onto a 96-well assay plate with a clear bottom lid and black plate (Corning, NY) and incubated with serum-free media for 24 h. Before binding, 3% BSA was added for 30 min to block non-specific binding. Cells were treated with 5 μg of Alexa Fluor 488-labeled AGE-BSA in a total volume of 100 μl serum-free medium and incubated in the dark for 6 h in a 5% CO2 humidified atmosphere at 37°C. Compounds were added after the addition of AGE-BSA-Alexa Fluor 488 to hRAGE-overexpressing cells. The non-specific binding of AGE-BSA-Alexa Fluor 488 to cell surface proteins other than hRAGE was compared by incubating cells with untreated cells (blank). After binding, 100 μl Opti-MEM were added to the washed plates, and the plates were then analyzed using a microtiter plate reader (Bio-Tek, Winooski, VT) with excitation and emission wavelengths of 485 and 528 nm, respectively.

T2 sequence (Q15109 23-404): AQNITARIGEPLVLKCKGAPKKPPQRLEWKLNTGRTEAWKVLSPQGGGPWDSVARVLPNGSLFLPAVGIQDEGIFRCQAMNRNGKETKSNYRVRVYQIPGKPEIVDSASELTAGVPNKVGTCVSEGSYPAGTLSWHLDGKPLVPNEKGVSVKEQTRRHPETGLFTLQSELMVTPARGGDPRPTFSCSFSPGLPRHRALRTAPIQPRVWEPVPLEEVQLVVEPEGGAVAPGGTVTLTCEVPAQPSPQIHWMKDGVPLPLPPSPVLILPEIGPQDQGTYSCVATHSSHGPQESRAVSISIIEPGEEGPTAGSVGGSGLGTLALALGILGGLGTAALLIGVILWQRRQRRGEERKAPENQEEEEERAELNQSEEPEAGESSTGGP

SMILES	IC50 (AGEs formation) [µM]	AR inhibitory potency compared with positive control TMG [1]	IC50 ([1]; DL-glyceraldehyde substrate) [µM]	other results
O=c1c(O)c(-c2ccc(O)cc2)oc2cc(O)cc(O)c12 [Compound 5, kaempferol]	36 ± 1.4	significantly more potent	1.1 ± 0.63	
O=C(O)C=Cc1ccc(O)cc1 [Compound 7, 4-hydroxycinnamic acid]	9.92 ± 0.11		> 50	
COc1cc(/C=C/C(=O)O)ccc1O [Compound 8, ferulic acid]	7.5 ± 0.2		> 50	Inhibition of high glucose-induced TGF-β1 secretion [2]: significantly reduced; also recorded: reduces; Inhibition of high glucose-induced TGF-β1 mRNA expression [3]: greatest inhibitory effect; Inhibition of high glucose-induced TGF-β1 mRNA expression ([3]; listed as ferulic acid): significantly reduced; also recorded: reduces
O=c1c(O[C@@H]2O[C@H](CO)[C@@H](O)[C@H](O)[C@H]2O)c(-c2ccc(O[C@@H]3O[C@H](CO)[C@@H](O)[C@H](O)[C@H]3O)cc2)oc2cc(O[C@@H]3O[C@H](CO)[C@@H](O)[C@H](O)[C@H]3O)cc(O)c12 [Compound 1, Kaempferol 3,7,4’-O-β-D-triglucopyranoside]	> 100		> 50	
O=c1c(O)c(-c2ccc(O)c(O)c2)oc2cc(O)cc(O)c12 [Compound 6, quercetin]	27.1 ± 0.11	significantly more potent		
N=C(N)NN [Aminoguanidine, aminoguanidine, reference compound]	1030 ± 70			AGEs IC50 (AGEs formation): 76.47 ± 4.81 µg/mL
C[C@@H]1O[C@@H](Oc2c(-c3ccc(O)c(O)c3)oc3cc(O)cc(O)c3c2=O)[C@H](O)[C@H](O)[C@H]1O [Compound 4, quercitrin]	4.2 ± 0.04	significantly more potent	0.17 ± 0.1	Inhibition of AGE-RAGE binding (human RAGE (hRAGE)): significantly inhibited; Inhibition of AGE-RAGE binding (human RAGE (hRAGE); listed as quercitrin): disrupted AGE-RAGE binding in a concentration-dependent manner
O=C(O)CC1(CC(=O)O)CCCC1 [Tetramethyleneglutaric acid, 3,3-tetramethyleneglutaric acid, reference compound]			5.07 ± 0.06	AR IC50 ([1]; DL-glyceraldehyde substrate): 0.94 ± 0.01 µg/mL
O=c1c(O[C@@H]2O[C@H](CO)[C@@H](O)[C@H](O)[C@H]2O)c(-c2ccc(O[C@@H]3O[C@H](CO)[C@@H](O)[C@H](O)[C@H]3O)cc2)oc2cc(O)cc(O)c12 [Compound 3, kaempferol 3,4’-O-β-D-diglucopyranoside]	59.7 ± 1.22		9.77 ± 0.33	
O=c1c(O[C@@H]2O[C@H](CO)[C@@H](O)[C@H](O)[C@H]2O)c(-c2ccc(O)cc2)oc2cc(O[C@@H]3O[C@H](CO)[C@@H](O)[C@H](O)[C@H]3O)cc(O)c12 [Compound 2, Kaempferol 3,7-O-β-D-diglucopyranoside]	56.4 ± 1.39		> 50	
